Read-outs that look alike come from different tables or passages of the source.
Assays:
[1] = target: T1, RosA (N,N-8-demethyl-8-amino-D-riboflavin dimethyltransferase) (Streptomyces davaonensis, UniProt K4RFM2); assay: isothermal titration calorimetry; assay type: binding
T1 construct: full length, hexahistidine-tagged (pET24a(+)rosA-His6, pFJ02), tag kept, E. coli Rosetta 2 (DE3); 353 amino acids; subunit 38 kDa, native 77 kDa, homodimer
From the text: isothermal titration calorimetry on RosA (N,N-8-demethyl-8-amino-D-riboflavin dimethyltransferase)

[2] = target: T1, RosA (N,N-8-demethyl-8-amino-D-riboflavin dimethyltransferase); assay: initial rates of RoF formation at […] nm, Henderson plot (tight-binding inhibition); assay type: biochemical
[3] = target: N,N‐8‐demethyl‐8‐amino‐D‐riboflavin dimethyltransferase (RosA), hexahistidine‐tagged (Streptomyces davawensis); assay: SEC; Superdex 200 10/300 GL, 25 °C, 50 mM Tris-HCl pH 8.0 with 100 mM NaCl, 0.5 mL/min, calibrated with standard proteins; native mass about 77 kDa against a subunit mass of 38 kDa
purified protein [4] = substrate: C[S+](CC[C@H](N)C(=O)O)C[C@H]1O[C@@H](n2cnc3c(N)ncnc32)[C@H](O)[C@@H]1O; assay: purified protein; details: varied AF (20-100 μM), 50 mM Tris/HCl pH 8.0, 100 mM NaCl, 25 °C, random-order bi-bi
purified protein [5] = substrate: Cc1cc2nc3c(=O)[nH]c(=O)nc-3n(C[C@H](O)[C@H](O)[C@H](O)CO)c2cc1N; assay: purified protein; assay type: biochemical, Streptomyces davaonensis; details: varied SAM (20-250 μM), 50 mM Tris/HCl pH 8.0, 100 mM NaCl, 25 °C, random-order bi-bi

In the case of C[S+](CC[C@H](N)C(=O)O)C[C@H]1O[C@@H](n2cnc3c(N)ncnc32)[C@H](O)[C@@H]1O (some centres unmarked) [SAM], the Kd [1] is reported as 22 ± 2 µM.

Cc1cc2nc3c(=O)[nH]c(=O)nc-3n(C[C@H](O)[C@H](O)[C@H](O)CO)c2cc1N [AF] gave a Kd ([1]; read-out: AF) of 10 ± 1 µM.

Nc1ncnc2c1ncn2[C@@H]1O[C@H](CSCC[C@H](N)C(=O)O)[C@@H](O)[C@H]1O [SAH] gave a Kd ([1]; read-out: SAH) of 2 ± 0.1 µM and a Ki [2] of 7 µM.

In the case of Cc1cc2nc3c(=O)[nH]c(=O)nc-3n(C[C@H](O)[C@H](O)[C@H](O)CO)c2cc1N(C)C [RoF], the Kd ([1]; read-out: RoF) is reported as 0.8 ± 0.05 µM and the Ki [2] is reported as 27 µM.

Work on “N,N‐8‐demethyl‐8‐amino‐D‐riboflavin dimethyltransferase (RosA), hexahistidine‐tagged (enzyme)” yielded a stoichiometry N [3] of 2.

B1: RosA (N,N-8-demethyl-8-amino-D-riboflavin dimethyltransferase) (Streptomyces davaonensis JCM 4913) (protein)
chain: MRPEPTEHPERTAAQRLYQYNVDLKVAFVLYAVAKLHLPDLLADGPRTTADLAAATGSDPSRLRRLLRAAAGADALREVPEDSFELAPMGDLLRSGHPRSMRGMTTFFAEPDVLAAYGDLVESVRTGVPAFQLRHREPLYDFLARPQHKEVRDEFDAAMVEFGQYFADDFLTSFDFGRFTRFADIGGGRGQFLAGVLTAVPSSTGVLVDGPAVAASAHKFLASQNLTERVEVRIGDFFDVLPTGCDAYVLRGVLEDWADADAVRLLVRIRQAMGDAPEARLLILDSVIGETGELGKVLDLDMLVLVEGEHRTRAQWDDLLARAGFDIVGIHPAGDVWAVIECRGTAG
notes: full length, hexahistidine-tagged (pET24a(+)rosA-His6, pFJ02), tag kept, E. coli Rosetta 2 (DE3); 353 amino acids; subunit 38 kDa, native 77 kDa, homodimer
Work on B1 yielded a Km (purified protein [4]) of 70 µM, a kcat (purified protein [4]) of 0.001 s⁻¹ and a Km (purified protein [5]) of 4 µM. For the same molecule, the kcat (purified protein [5]) was 0.001 s⁻¹.
